How the values were obtained:
TubE = target: T1, TubE (Streptomyces tubercidicus, UniProt A0A384YVR8); test: HPLC and LC-MS product detection; product NMR; type: biochemical; conditions: 1 mM CDG, 2 mM PRPP, 5 mM MgCl2, 1 mM DTT, 100 mM PBS pH 7.5, 30 °C, 8 h
T1 construct: gene Stube_10250; full-length, 194 aa, His6-tagged (pET28a NdeI-EcoRI), E. coli Rosetta (DE3)/pLysS
T1 sequence (A0A384YVR8 1-194): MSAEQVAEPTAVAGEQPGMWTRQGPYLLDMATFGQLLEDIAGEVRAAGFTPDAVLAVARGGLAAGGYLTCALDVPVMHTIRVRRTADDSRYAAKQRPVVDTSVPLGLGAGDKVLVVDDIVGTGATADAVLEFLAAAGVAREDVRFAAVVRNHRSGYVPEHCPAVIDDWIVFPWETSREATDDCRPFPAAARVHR

TubD = target: T2, TubD (Streptomyces tubercidicus, UniProt A0A384YXG2); test: LC-MS detection of IMP; type: biochemical; conditions: 1 mM NADPH, 1 mM GMP, 50 mM KCl, 1 mM DTT, 2 mM EDTA, 100 mM Tris-HCl pH 7.5, 30 °C, 4 h
T2 construct: gene Stube_10260; full-length, 385 aa, His6-tagged (pET28a NdeI-EcoRI), E. coli Rosetta (DE3)/pLysS
T2 sequence (A0A384YXG2 1-385): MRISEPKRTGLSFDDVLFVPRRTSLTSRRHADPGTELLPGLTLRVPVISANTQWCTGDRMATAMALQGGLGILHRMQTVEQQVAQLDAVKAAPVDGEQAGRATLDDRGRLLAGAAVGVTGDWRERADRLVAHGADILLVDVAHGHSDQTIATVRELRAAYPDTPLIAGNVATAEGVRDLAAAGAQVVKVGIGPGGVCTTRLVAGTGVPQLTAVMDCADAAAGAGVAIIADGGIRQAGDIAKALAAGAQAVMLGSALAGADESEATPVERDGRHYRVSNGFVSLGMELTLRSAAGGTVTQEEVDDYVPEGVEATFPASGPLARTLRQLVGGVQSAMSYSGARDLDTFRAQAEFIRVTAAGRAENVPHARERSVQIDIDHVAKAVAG

| SMILES | HPLC and LC-MS product detection; product NMR (TubE) | LC-MS detection of IMP (TubD) |
| --- | --- | --- |
| O=P(O)(O)OC[C@H]1O[C@H](OP(=O)(O)OP(=O)(O)O)[C@H](O)[C@@H]1O [PRPP] | HPLC profile of the TubE reaction using PRPP and CDG as substrates |  |
| NC(=O)C1=CN([C@@H]2O[C@H](COP(=O)(O)OP(=O)(O)OC[C@H]3O[C@@H](n4cnc5c(N)ncnc54)[C@H](OP(=O)(O)O)[C@@H]3O)[C@@H](O)[C@H]2O)C=CC1 [NADPH] |  | this cofactor could not replace NADPH to supply reducing equivalents for the TubD reaction |
| Nc1nc2[nH]cc(C(=O)O)c2c(=O)[nH]1 [CDG] | all of the data demonstrate that TubE functions as a CDG-specific phosphoribosyltransferase |  |

— paper PMC6112128, “Discovery and characterization of the tubercidin biosynthetic pathway from Streptomyces tubercidicus NBRC 13090” (Microbial Cell Factories, 2018)
